Assay results as given in PubChem BioAssay AID248 (DTP/NCI, 2004).
“And” between values parts separate entries of the source, which are not always exact repeats. Equal entries are not always repeated. Inconclusive results and toxic doses are left out. No stated cut-off is given here; in the data, active means T/C of 150% or more; inactive means T/C below 125%.

Test system: L1210 leukemia ip in BDF1 mice, survival T/C
Experiment: NCI In Vivo Anticancer Drug Screen. Data for tumor model L1210 Leukemia (intraperitoneal) in B6D2F1 (BDF1) mice
Details: higher = longer survival
Outline: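 Value reflects the ratio of survival in compound-treated mice to survival in vehicle-treated controls, with both groups carrying the same transplanted tumor.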

[1] = endpoint: mean survival time, dose: 100.0 mg/kg/injection, schedule: Q04DX003 (ip), vehicle: saline
[2] = endpoint: mean survival time, dose: 200.0 mg/kg/injection, schedule: Q04DX003 (ip), vehicle: saline
[3] = endpoint: mean survival time, dose: 400.0 mg/kg/injection, schedule: Q04DX003 (ip), vehicle: saline

Measured: T/C

O=NN(CCCl)C(=O)NC1CCC(=O)NC1=O (centres undefined)
active: endpoint: mean survival time, dose: 5.5 mg/kg/injection, schedule: Q01DX001 (ip), vehicle: other 172 % of control | endpoint: mean survival time, dose: 6.0 mg/kg/injection, schedule: Q01DX001 (ip), vehicle: other 203 % of control | endpoint: mean survival time, dose: 8.0 mg/kg/injection, schedule: Q01DX001 (ip), vehicle: other 246 % of control | endpoint: mean survival time, dose: 11.0 mg/kg/injection, schedule: Q01DX001 (ip), vehicle: other 300 % of control | endpoint: mean survival time, dose: 12.0 mg/kg/injection, schedule: Q01DX001 (ip), vehicle: other 292 % of control | endpoint: mean survival time, dose: 16.0 mg/kg/injection, schedule: Q01DX001 (ip), vehicle: other 315 % of control and 326 % of control | endpoint: mean survival time, dose: 22.0 mg/kg/injection, schedule: Q01DX001 (ip), vehicle: other 340 % of control | endpoint: mean survival time, dose: 24.0 mg/kg/injection, schedule: Q01DX001 (ip), vehicle: other 220 % of control | endpoint: mean survival time, dose: 33.0 mg/kg/injection, schedule: Q01DX001 (ip), vehicle: other 340 % of control | endpoint: mean survival time, dose: 44.0 mg/kg/injection, schedule: Q01DX001 (ip), vehicle: other 295 % of control | endpoint: median survival time, dose: 5.0 mg/kg/injection, schedule: Q01DX001 (ip), vehicle: other 227 % of control | endpoint: median survival time, dose: 5.0 mg/kg/injection, schedule: Q01DX001 (ip), vehicle: saline 193 % of control | endpoint: median survival time, dose: 5.0 mg/kg/injection, schedule: Q01DX001 (iv), vehicle: other 151 % of control | endpoint: median survival time, dose: 5.0 mg/kg/injection, schedule: Q01DX001 (iv), vehicle: saline 150 % of control | endpoint: median survival time, dose: 10.0 mg/kg/injection, schedule: Q01DX001 (ip), vehicle: other 600 % of control | endpoint: median survival time, dose: 10.0 mg/kg/injection, schedule: Q01DX001 (ip), vehicle: saline 598 % of control | endpoint: median survival time, dose: 10.0 mg/kg/injection, schedule: Q01DX001 (iv), vehicle: other 290 % of control | endpoint: median survival time, dose: 10.0 mg/kg/injection, schedule: Q01DX001 (iv), vehicle: saline 253 % of control | endpoint: median survival time, dose: 20.0 mg/kg/injection, schedule: Q01DX001 (ip), vehicle: other 550 % of control | endpoint: median survival time, dose: 20.0 mg/kg/injection, schedule: Q01DX001 (ip), vehicle: saline 596 % of control | endpoint: median survival time, dose: 20.0 mg/kg/injection, schedule: Q01DX001 (iv), vehicle: other 599 % of control | endpoint: median survival time, dose: 20.0 mg/kg/injection, schedule: Q01DX001 (iv), vehicle: saline 600 % of control
inactive: endpoint: mean survival time, dose: 0.5 mg/kg/injection, schedule: Q01DX001 (ip), vehicle: other 104 % of control | endpoint: mean survival time, dose: 1.0 mg/kg/injection, schedule: Q01DX001 (ip), vehicle: other 106 % of control | endpoint: mean survival time, dose: 2.0 mg/kg/injection, schedule: Q01DX001 (ip), vehicle: other 118 % of control | endpoint: mean survival time, dose: 36.0 mg/kg/injection, schedule: Q01DX001 (ip), vehicle: other 93 % of control | endpoint: median survival time, dose: 0.63 mg/kg/injection, schedule: Q01DX001 (ip), vehicle: other 106 % of control | endpoint: median survival time, dose: 0.63 mg/kg/injection, schedule: Q01DX001 (ip), vehicle: saline 110 % of control | endpoint: median survival time, dose: 0.63 mg/kg/injection, schedule: Q01DX001 (iv), vehicle: other 103 % of control | endpoint: median survival time, dose: 0.63 mg/kg/injection, schedule: Q01DX001 (iv), vehicle: saline 108 % of control | endpoint: median survival time, dose: 1.25 mg/kg/injection, schedule: Q01DX001 (ip), vehicle: other 116 % of control | endpoint: median survival time, dose: 1.25 mg/kg/injection, schedule: Q01DX001 (ip), vehicle: saline 120 % of control | endpoint: median survival time, dose: 1.25 mg/kg/injection, schedule: Q01DX001 (iv), vehicle: other 118 % of control | endpoint: median survival time, dose: 1.25 mg/kg/injection, schedule: Q01DX001 (iv), vehicle: saline 106 % of control | endpoint: median survival time, dose: 2.5 mg/kg/injection, schedule: Q01DX001 (iv), vehicle: other 122 % of control | endpoint: median survival time, dose: 2.5 mg/kg/injection, schedule: Q01DX001 (iv), vehicle: saline 118 % of control | endpoint: median survival time, dose: 40.0 mg/kg/injection, schedule: Q01DX001 (ip), vehicle: other 101 % of control | endpoint: median survival time, dose: 40.0 mg/kg/injection, schedule: Q01DX001 (ip), vehicle: saline 104 % of control

Cc1ccc(/C(=N\N=C(N)N)C2CC2)cc1
inactive: endpoint: mean survival time, dose: 15.0 mg/kg/injection, schedule: Q01DX Z (ip), vehicle: methylcellulose (MC) 102 % of control | endpoint: mean survival time, dose: 30.0 mg/kg/injection, schedule: Q01DX Z (ip), vehicle: methylcellulose (MC) 113 % of control | endpoint: mean survival time, dose: 60.0 mg/kg/injection, schedule: Q01DX Z (ip), vehicle: methylcellulose (MC) 112 % of control | endpoint: mean survival time, dose: 120.0 mg/kg/injection, schedule: Q01DX Z (ip), vehicle: methylcellulose (MC) 97 % of control | endpoint: mean survival time, dose: 120.0 mg/kg/injection, schedule: Q01DX Z (oral), vehicle: methylcellulose (MC) 96 % of control | endpoint: mean survival time, dose: 240.0 mg/kg/injection, schedule: Q01DX Z (ip), vehicle: methylcellulose (MC) 99 % of control | endpoint: mean survival time, dose: 240.0 mg/kg/injection, schedule: Q01DX Z (oral), vehicle: methylcellulose (MC) 98 % of control | endpoint: mean survival time, dose: 480.0 mg/kg/injection, schedule: Q01DX Z (oral), vehicle: methylcellulose (MC) 90 % of control

CCOP(=O)(NC=S)OCC
inactive: endpoint: mean survival time, dose: 75.0 mg/kg/injection, schedule: Q01DX001 (ip), vehicle: saline 96 % of control

N#Cc1cnn(C(N)=O)c1N
inactive: endpoint: mean survival time, dose: 100.0 mg/kg/injection, schedule: Q04DX003 (ip), vehicle: Klucel (hydroxypropylcellulose) (HPC) 100 % of control | endpoint: mean survival time, dose: 200.0 mg/kg/injection, schedule: Q04DX003 (ip), vehicle: Klucel (hydroxypropylcellulose) (HPC) 95 % of control | endpoint: mean survival time, dose: 400.0 mg/kg/injection, schedule: Q04DX003 (ip), vehicle: Klucel (hydroxypropylcellulose) (HPC) 100 % of control

C[Si](C)(C)C1C=Cc2ccccc2C1[Si](C)(C)C (centres undefined)
inactive: endpoint: mean survival time, dose: 100.0 mg/kg/injection, schedule: Q01DX009 (ip), vehicle: saline with Tween-80 94 % of control | endpoint: mean survival time, dose: 200.0 mg/kg/injection, schedule: Q01DX009 (ip), vehicle: saline with Tween-80 91 % of control | endpoint: mean survival time, dose: 400.0 mg/kg/injection, schedule: Q01DX009 (ip), vehicle: saline with Tween-80 94 % of control

CNCC(O)c1ccccc1 (centres undefined)
inactive: endpoint: mean survival time, dose: 100.0 mg/kg/injection, schedule: Q01DX001 (ip), vehicle: saline 96 % of control | [1] 94 % of control | endpoint: mean survival time, dose: 200.0 mg/kg/injection, schedule: Q01DX001 (ip), vehicle: saline 97 % of control | [2] 96 % of control | endpoint: mean survival time, dose: 400.0 mg/kg/injection, schedule: Q01DX001 (ip), vehicle: saline 92 % of control | [3] 100 % of control

Cc1ccc(N=Nc2ccc(C)cc2NC(=O)Nc2cc([N+](=O)[O-])ccc2C)cc1
inactive: endpoint: mean survival time, dose: 100.0 mg/kg/injection, schedule: Q04DX002 (ip), vehicle: Klucel (hydroxypropylcellulose) (HPC) 92 % of control | endpoint: mean survival time, dose: 200.0 mg/kg/injection, schedule: Q04DX002 (ip), vehicle: Klucel (hydroxypropylcellulose) (HPC) 101 % of control | endpoint: mean survival time, dose: 400.0 mg/kg/injection, schedule: Q04DX002 (ip), vehicle: Klucel (hydroxypropylcellulose) (HPC) 111 % of control

CC/C(C)=N/NS(C)(=O)=O
inactive: endpoint: mean survival time, dose: 75.0 mg/kg/injection, schedule: Q01DX001 (ip), vehicle: other 103 % of control | endpoint: mean survival time, dose: 150.0 mg/kg/injection, schedule: Q01DX001 (ip), vehicle: other 97 % of control

CCOc1c(Br)cc(N=Cc2ccc(N(CCCl)CCCl)c(OC)c2)cc1Br
inactive: endpoint: mean survival time, dose: 44.0 mg/kg/injection, schedule: Q01DX001 (ip), vehicle: carboxymethylcellulose (CMC) 120 % of control | endpoint: mean survival time, dose: 150.0 mg/kg/injection, schedule: Q01DX001 (ip), vehicle: carboxymethylcellulose (CMC) 123 % of control | endpoint: mean survival time, dose: 200.0 mg/kg/injection, schedule: Q01DX001 (ip), vehicle: carboxymethylcellulose (CMC) 104 % of control

CN1c2ccc3ccccc3c2Sc2ccc3ccccc3c21
inactive: endpoint: mean survival time, dose: 100.0 mg/kg/injection, schedule: Q01DX009 (ip), vehicle: acetone 100 % of control | [1] 94 % of control | endpoint: mean survival time, dose: 200.0 mg/kg/injection, schedule: Q01DX009 (ip), vehicle: acetone 100 % of control | [2] 95 % of control | endpoint: mean survival time, dose: 400.0 mg/kg/injection, schedule: Q01DX009 (ip), vehicle: acetone 88 % of control | [3] 97 % of control

CN1CCN(C(=O)OCCOCCOC(=O)N2CCN(C)CC2)CC1
inactive: endpoint: mean survival time, dose: 150.0 mg/kg/injection, schedule: Q01DX Z (ip), vehicle: saline 108 % of control | endpoint: mean survival time, dose: 230.0 mg/kg/injection, schedule: Q01DX Z (ip), vehicle: saline 93 % of control | endpoint: mean survival time, dose: 350.0 mg/kg/injection, schedule: Q01DX Z (ip), vehicle: saline 100 % of control

CC[S][Pb]([c]1ccccc1)([c]1ccccc1)[c]1ccccc1
inactive: endpoint: mean survival time, dose: 12.5 mg/kg/injection, schedule: Q04DX002 (ip), vehicle: Klucel (hydroxypropylcellulose) (HPC) 103 % of control

Cc1cccc(/C=N\NC(=O)CCCC(=O)N/N=C/c2cccc(C)n2)n1
inactive: endpoint: mean survival time, dose: 50.0 mg/kg/injection, schedule: Q01DX001 (ip), vehicle: carboxymethylcellulose (CMC) 88 % of control | endpoint: mean survival time, dose: 100.0 mg/kg/injection, schedule: Q01DX001 (ip), vehicle: carboxymethylcellulose (CMC) 90 % of control
